According to the OligoGym collection:
Several values for one entry are separate records, joined by “and”; a condition that tells them apart may be missing. Equal values may be shown once. HELM strings list units from the 5' end as sugar, base in round brackets, then linkage (d deoxyribose, r ribose, m 2'-O-methyl, p phosphodiester). Methylation of C is not given here. [moe] = 2'-O-(2-methoxyethyl) (MOE); [cEt] = constrained ethyl (cEt); [sp] = phosphorothioate linkage

Target: HBV
Conditions: ASO

RNA1{[moe](A)[sp].[moe](T)[sp].[moe](T)[sp].d(T)[sp].d(A)[sp].d(T)[sp].d(G)[sp].d(C)[sp].d(C)[sp].d(T)[sp].d(A)[sp].d(C)[sp].d(A)[sp].[moe](G)[sp].[moe](C)[sp].[moe](C)[sp].[moe](T)}$$$$V2.0
target mRNA inhibition (HepG2, 0.0092593 µM): 3% | target mRNA inhibition (HepG2, 0.0277778 µM): 11% | target mRNA inhibition (HepG2, 0.0833333 µM): 13% | target mRNA inhibition (HepG2, 0.25 µM): 41%

RNA1{[moe](A)[sp].[moe](T)[sp].d(G)[sp].d(A)[sp].d(G)[sp].d(G)[sp].d(C)[sp].d(A)[sp].d(T)[sp].d(A)[sp].d(G)[sp].[moe](C)[sp].[moe](A)[sp].[moe](G)[sp].[moe](C)[sp].[moe](A)[sp].[moe](G)}$$$$V2.0
target mRNA inhibition (HepG2, 0.07 µM): 64%

RNA1{[moe](C)[sp].[cEt](A)[sp].[cEt](C)[sp].d(A)[sp].d(G)[sp].d(C)[sp].d(T)[sp].d(T)[sp].d(G)[sp].d(G)[sp].d(A)[sp].d(G)[sp].d(G)[sp].[cEt](C)[sp].[cEt](T)[sp].[moe](T)}$$$$V2.0
target mRNA inhibition (HepG2, 0.07 µM): 11% and 0%

RNA1{[moe](C)[sp].[cEt](A)[sp].[cEt](C)[sp].d(G)[sp].d(A)[sp].d(G)[sp].d(T)[sp].d(C)[sp].d(T)[sp].d(A)[sp].d(G)[sp].d(A)[sp].d(C)[sp].[cEt](T)[sp].[cEt](C)[sp].[moe](T)}$$$$V2.0
target mRNA inhibition (HepG2, 0.07 µM): 44% and 38%

RNA1{[moe](C)[sp].[cEt](A)[sp].[cEt](G)[sp].d(C)[sp].d(T)[sp].d(T)[sp].d(G)[sp].d(G)[sp].d(A)[sp].d(G)[sp].d(G)[sp].d(C)[sp].d(T)[sp].[cEt](T)[sp].[cEt](G)[sp].[moe](A)}$$$$V2.0
target mRNA inhibition (HepG2, 0.07 µM): 5% and 12%

RNA1{[moe](C)[sp].[cEt](C)[sp].[cEt](A)[sp].d(C)[sp].d(A)[sp].d(T)[sp].d(C)[sp].d(A)[sp].d(T)[sp].d(C)[sp].d(C)[sp].d(A)[sp].d(T)[sp].[cEt](A)[sp].[cEt](T)[sp].[moe](A)}$$$$V2.0
target mRNA inhibition (HepG2, 0.07 µM): 60% and 50%

RNA1{[moe](C)[sp].[cEt](C)[sp].[cEt](G)[sp].d(C)[sp].d(A)[sp].d(G)[sp].d(T)[sp].d(A)[sp].d(T)[sp].d(G)[sp].d(G)[sp].d(A)[sp].d(T)[sp].[cEt](C)[sp].[cEt](G)[sp].[moe](G)}$$$$V2.0
target mRNA inhibition (HepG2, 0.07 µM): 63% and 52%

RNA1{[moe](C)[sp].[cEt](G)[sp].[cEt](G)[sp].d(G)[sp].d(C)[sp].d(A)[sp].d(A)[sp].d(C)[sp].d(A)[sp].d(T)[sp].d(A)[sp].d(C)[sp].d(C)[sp].[cEt](T)[sp].[cEt](T)[sp].[moe](G)}$$$$V2.0
target mRNA inhibition (HepG2, 0.07 µM): 61% and 63%

RNA1{[moe](C)[sp].[cEt](G)[sp].[cEt](T)[sp].d(G)[sp].d(C)[sp].d(A)[sp].d(G)[sp].d(A)[sp].d(G)[sp].d(G)[sp].d(T)[sp].d(G)[sp].d(A)[sp].[cEt](A)[sp].[cEt](G)[sp].[moe](C)}$$$$V2.0
target mRNA inhibition (HepG2, 0.07 µM): 68% and 65%

RNA1{[moe](C)[sp].[cEt](G)[sp].d(T)[sp].d(G)[sp].d(C)[sp].d(A)[sp].d(G)[sp].d(A)[sp].d(G)[sp].d(G)[sp].d(T)[sp].d(G)[sp].[cEt](A)[sp].[moe](A)[sp].[cEt](G)[sp].[moe](C)}$$$$V2.0
target mRNA inhibition (HepG2, 0.07 µM): 76% and 79%

RNA1{[moe](C)[sp].[cEt](T)[sp].d(G)[sp].d(A)[sp].d(A)[sp].d(C)[sp].d(A)[sp].d(A)[sp].d(A)[sp].d(T)[sp].d(G)[sp].d(G)[sp].[cEt](C)[sp].[moe](A)[sp].[cEt](C)[sp].[moe](T)}$$$$V2.0
target mRNA inhibition (HepG2, 0.07 µM): 58% and 71%

RNA1{[moe](C)[sp].[moe](A)[sp].[moe](A)[sp].[moe](T)[sp].[moe](T)[sp].d(T)[sp].d(A)[sp].d(T)[sp].d(G)[sp].d(C)[sp].d(C)[sp].d(T)[sp].d(A)[sp].d(C)[sp].[moe](A)[sp].[moe](G)[sp].[moe](C)}$$$$V2.0
target mRNA inhibition (HepG2, 0.07 µM): 30% and 13%

RNA1{[moe](C)[sp].[moe](A)[sp].[moe](C)[sp].d(T)[sp].d(A)[sp].d(G)[sp].d(T)[sp].d(A)[sp].d(A)[sp].d(A)[sp].d(C)[sp].d(T)[sp].[moe](G)[sp].[moe](A)[sp].[moe](G)[sp].[moe](C)[sp].[moe](C)}$$$$V2.0
target mRNA inhibition (HepG2, 0.07 µM): 54% and 37%

RNA1{[moe](C)[sp].[moe](A)[sp].[moe](G)[sp].[moe](A)[sp].[moe](G)[sp].d(G)[sp].d(T)[sp].d(G)[sp].d(A)[sp].d(A)[sp].d(G)[sp].d(C)[sp].d(G)[sp].d(A)[sp].[moe](A)[sp].[moe](G)}$$$$V2.0
target mRNA inhibition (HepG2, 0.07 µM): 60% and 57%

RNA1{[moe](C)[sp].[moe](A)[sp].[moe](G)[sp].[moe](A)[sp].d(G)[sp].d(G)[sp].d(T)[sp].d(G)[sp].d(A)[sp].d(A)[sp].d(G)[sp].d(C)[sp].d(G)[sp].[moe](A)[sp].[moe](A)[sp].[moe](G)[sp].[moe](T)}$$$$V2.0
target mRNA inhibition (HepG2, 0.07 µM): 60% and 45%

RNA1{[moe](C)[sp].[moe](A)[sp].[moe](G)[sp].d(A)[sp].d(G)[sp].d(G)[sp].d(T)[sp].d(G)[sp].d(A)[sp].d(A)[sp].d(G)[sp].d(C)[sp].d(G)[sp].[cEt](A)[sp].[cEt](A)[sp].[cEt](G)}$$$$V2.0
target mRNA inhibition (HepG2, 0.07 µM): 60% and 62%

RNA1{[moe](C)[sp].[moe](C)[sp].[moe](A)[sp].[moe](A)[sp].[moe](T)[sp].d(T)[sp].d(T)[sp].d(A)[sp].d(T)[sp].d(G)[sp].d(C)[sp].d(C)[sp].d(T)[sp].d(A)[sp].[moe](C)[sp].[moe](A)[sp].[moe](G)}$$$$V2.0
target mRNA inhibition (HepG2, 0.07 µM): 25% and 9%

RNA1{[moe](C)[sp].[moe](C)[sp].[moe](A)[sp].[moe](A)[sp].d(T)[sp].d(T)[sp].d(T)[sp].d(A)[sp].d(T)[sp].d(G)[sp].d(C)[sp].d(C)[sp].d(T)[sp].[moe](A)[sp].[moe](C)[sp].[moe](A)[sp].[moe](G)}$$$$V2.0
target mRNA inhibition (HepG2, 0.07 µM): 34% and 11%

RNA1{[moe](C)[sp].[moe](C)[sp].[moe](A)[sp].d(C)[sp].d(T)[sp].d(G)[sp].d(A)[sp].d(A)[sp].d(C)[sp].d(A)[sp].d(A)[sp].d(A)[sp].d(T)[sp].[cEt](G)[sp].[cEt](G)[sp].[cEt](C)}$$$$V2.0
target mRNA inhibition (HepG2, 0.07 µM): 77% and 78%

RNA1{[moe](C)[sp].[moe](C)[sp].d(A)[sp].d(A)[sp].d(T)[sp].d(T)[sp].d(T)[sp].d(A)[sp].d(T)[sp].d(G)[sp].d(C)[sp].[moe](C)[sp].[moe](T)[sp].[moe](A)[sp].[moe](C)[sp].[moe](A)[sp].[moe](G)}$$$$V2.0
target mRNA inhibition (HepG2, 0.07 µM): 41% and 42%

RNA1{[moe](C)[sp].[moe](C)[sp].d(A)[sp].d(A)[sp].d(T)[sp].d(T)[sp].d(T)[sp].d(A)[sp].d(T)[sp].d(G)[sp].d(C)[sp].[moe](C)[sp].[moe](T)[sp].[moe](A)[sp].[moe](C)[sp].[moe](A)}$$$$V2.0
target mRNA inhibition (HepG2, 0.07 µM): 13% and 22%

RNA1{[moe](C)[sp].[moe](C)[sp].d(G)[sp].d(C)[sp].d(A)[sp].d(G)[sp].d(T)[sp].d(A)[sp].d(T)[sp].d(G)[sp].d(G)[sp].[moe](A)[sp].[moe](T)[sp].[moe](C)[sp].[moe](G)[sp].[moe](G)[sp].[moe](C)}$$$$V2.0
target mRNA inhibition (HepG2, 0.07 µM): 86% and 80%

RNA1{[moe](C)[sp].[moe](G)[sp].[moe](A)[sp].[moe](A)[sp].[moe](C)[sp].[moe](C)[sp].d(A)[sp].d(C)[sp].d(T)[sp].d(G)[sp].d(A)[sp].d(A)[sp].d(C)[sp].d(A)[sp].d(A)[sp].[moe](A)[sp].[moe](T)}$$$$V2.0
target mRNA inhibition (HepG2, 0.07 µM): 0% and 20%

RNA1{[moe](C)[sp].[moe](G)[sp].[moe](A)[sp].[moe](A)[sp].[moe](C)[sp].d(C)[sp].d(A)[sp].d(C)[sp].d(T)[sp].d(G)[sp].d(A)[sp].d(A)[sp].d(C)[sp].d(A)[sp].[moe](A)[sp].[moe](A)}$$$$V2.0
target mRNA inhibition (HepG2, 0.07 µM): 36% and 19%

RNA1{[moe](C)[sp].[moe](G)[sp].[moe](A)[sp].[moe](A)[sp].d(C)[sp].d(C)[sp].d(A)[sp].d(C)[sp].d(T)[sp].d(G)[sp].d(A)[sp].d(A)[sp].d(C)[sp].[moe](A)[sp].[moe](A)[sp].[moe](A)[sp].[moe](T)}$$$$V2.0
target mRNA inhibition (HepG2, 0.07 µM): 48% and 41%

RNA1{[moe](C)[sp].[moe](G)[sp].[moe](C)[sp].[moe](A)[sp].[moe](G)[sp].d(T)[sp].d(A)[sp].d(T)[sp].d(G)[sp].d(G)[sp].d(A)[sp].d(T)[sp].d(C)[sp].d(G)[sp].[moe](G)[sp].[moe](C)[sp].[moe](A)}$$$$V2.0
target mRNA inhibition (HepG2, 0.07 µM): 56% and 57%

RNA1{[moe](C)[sp].[moe](G)[sp].[moe](C)[sp].[moe](A)[sp].[moe](G)[sp].d(T)[sp].d(A)[sp].d(T)[sp].d(G)[sp].d(G)[sp].d(A)[sp].d(T)[sp].d(C)[sp].d(G)[sp].[moe](G)[sp].[moe](C)}$$$$V2.0
target mRNA inhibition (HepG2, 0.07 µM): 64% and 57%

RNA1{[moe](C)[sp].[moe](G)[sp].[moe](C)[sp].d(A)[sp].d(G)[sp].d(T)[sp].d(A)[sp].d(T)[sp].d(G)[sp].d(G)[sp].d(A)[sp].d(T)[sp].[moe](C)[sp].[moe](G)[sp].[moe](G)[sp].[moe](C)[sp].[moe](A)}$$$$V2.0
target mRNA inhibition (HepG2, 0.0092593 µM): 7% | target mRNA inhibition (HepG2, 0.0277778 µM): 38% | target mRNA inhibition (HepG2, 0.07 µM): 85% and 80% | target mRNA inhibition (HepG2, 0.0833333 µM): 78% | target mRNA inhibition (HepG2, 0.25 µM): 89%

RNA1{[moe](C)[sp].[moe](G)[sp].[moe](G)[sp].d(G)[sp].d(C)[sp].d(A)[sp].d(A)[sp].d(C)[sp].d(A)[sp].d(T)[sp].d(A)[sp].d(C)[sp].[moe](C)[sp].[moe](T)[sp].[moe](T)[sp].[moe](G)}$$$$V2.0
target mRNA inhibition (HepG2, 0.07 µM): 56% and 45%

RNA1{[moe](C)[sp].[moe](G)[sp].[moe](G)[sp].d(G)[sp].d(C)[sp].d(A)[sp].d(A)[sp].d(C)[sp].d(A)[sp].d(T)[sp].d(A)[sp].d(C)[sp].d(C)[sp].[cEt](T)[sp].[cEt](T)[sp].[cEt](G)}$$$$V2.0
target mRNA inhibition (HepG2, 0.07 µM): 56% and 65%

RNA1{[moe](C)[sp].[moe](G)[sp].[moe](T)[sp].[moe](G)[sp].[moe](C)[sp].d(A)[sp].d(G)[sp].d(A)[sp].d(G)[sp].d(G)[sp].d(T)[sp].d(G)[sp].d(A)[sp].d(A)[sp].[moe](G)[sp].[moe](C)[sp].[moe](G)}$$$$V2.0
target mRNA inhibition (HepG2, 0.07 µM): 74% and 63%

RNA1{[moe](C)[sp].[moe](G)[sp].[moe](T)[sp].[moe](G)[sp].d(C)[sp].d(A)[sp].d(G)[sp].d(A)[sp].d(G)[sp].d(G)[sp].d(T)[sp].d(G)[sp].d(A)[sp].[moe](A)[sp].[moe](G)[sp].[moe](C)[sp].[moe](G)}$$$$V2.0
target mRNA inhibition (HepG2, 0.07 µM): 58% and 43%
